In US20240307589A1, “LEPTIN RECEPTOR AFFINITY PEPTIDE AND USE THEREOF” (Dubu Biosciences, priority 2021, published 2024):
No end group written: not given here. *: point of attachment. FITC = O=C1OC2(c3ccc(O)cc3Oc3cc(O)ccc32)c2ccc(NC(=S)*)cc21

What was measured:
rat lung injury site = assay: Recruitment of endogenous MSCs to peptide-bound collagen sponge implanted into rat lung injury site (flow cytometry); assay type: in vivo; settings: rat lung defect, 12 h, 24 h or 48 h after implantation, vs control groups; FIGS. 6A to 6F
Method: Rats weighing about 150 g were anesthetized, intubated and subjected to partial resection on middle lobes of right lungs in the case of positive pressure ventilation of ventilators, where lung tissues with a size of about 0.5 cm*0.5 cm*0.3 cm were resected, and the collagen sponges which had been uniformly added dropwise with the CBD-affinity peptide or the control peptides and incubated for 2 h at 37° C. in advance were implanted into rat lung defect sites, respectively. After the rats were sacrificed after 12 h, 24 h or 48 h, respectively, the implanted collagen sponges were completely separated and taken out. The collagen sponges were dissolved with a collagenase, and cells adsorbed on the collagen sponges in vivo were separated and collected. Through identification of expression of CD45, CD44, CD71 and CD90 on surfaces of the cells, proportions of the numbers of MSCs adsorbed on the collagen sponges at the implantation sites were analyzed. The proportions that the MSCs accounted for in the cells digested from the collagen sponges were detected by flow cytometry.

rat lung injury sites = assay: Lung injury repair after implantation of peptide-bound collagen sponge (Masson's staining); assay type: in vivo; settings: 35 days after implantation, vs control groups, FIG. 7
Description: After a CBD-affinity peptide and control peptides were implanted into rat lung injury sites according to the above method, lung tissues were taken out 35 days later and subjected to pathological identification.

rat MSCs = assay: Binding of FITC-labeled peptide to rat MSCs by flow cytometry; assay type: cell-based; settings: FITC-labeled peptides, vs M7, FIG. 4
Description: To evaluate the species specificity of the HY7 peptide and provide a basis for subsequent animal experiments, the binding of HY7 to rat MSCs was specifically verified. Rat bone marrow cells were acquired according to a conventional method and subjected to culture and identification, and rat MSCs were obtained. The binding of an FITC-HY7 peptide and an FITC-M7 peptide to the rat MSCs was detected according to the above flow cytometry detection method.

human MSCs = assay: Binding recovery of phage to human MSCs (elution and titration); assay type: cell-based; settings: vs M13KE negative control phage, FIG. 2A
Method: (§1) An HY7 phage monoclone and an M13KE negative control phage were amplified with reference to the method in Example 1 and titrated. The HY7 phage monoclone and the M13KE negative control phage were added to well plates containing human MSCs with a confluence pre-cultured to about 80%, and an unrelated human bone marrow stromal cell line HS-5 was set as a control. The HY7 phage monoclone and the M13KE negative control phage were subjected to binding and elution according to a step of screening phages to obtain an eluent of the HY7 phage binding to the target protein and an eluent of the M13KE negative control phage binding to the target protein, respectively. The eluent of the HY7 phage binding to the target protein and the eluent of the M13KE negative control phage binding to the target protein were titrated according to a phage titration method. The binding of the HY7 phage monoclone to the target molecule and the binding of the M13KE negative control phage to the target molecule were compared. […] FIG. 2A is a schematic diagram illustrating the binding recovery of an HY7 phage monoclone and an M13KE negative control phage to human MSCs, and FIG. 2B is a schematic diagram illustrating the binding recovery of an HY7 phage monoclone and an M13KE negative control phage to HS-5 cells.

[1] = test system: human bone marrow stromal cell line HS-5; assay: Binding recovery of phage to control HS-5 cells (elution and titration); assay type: cell-based; settings: FIG. 2B
Method: as §1

| Substance | MSCs adsorbed to the collagen sponge (proportion of MSCs in cells digested from sponge) (rat lung injury site) | repair effect at the tissue site (rat lung injury sites) | binding ability to the rat MSCs (rat MSCs) | binding to surfaces of the MSCs (binding recovery) (human MSCs) | binding to the control cells HS-5 (binding recovery) [1] |
| --- | --- | --- | --- | --- | --- |
| CBD-HY7: CBD (TKKTLRT) on the N-terminus of HY7 through a linker (GGGGS or GGG-K-FITC) (TKKTLRTGGGK(FITC)HGGVRLY) | can adsorb more MSCs to the collagen sponge in a short time | better repair effect | – | – | – |
| HGGVRLY (Leptin receptor affinity peptide) [HY7] | – | – | significantly stronger than that of M7 | can specifically binds to surfaces of the MSCs | does not bind |
